In test [1] the target is T1, Alpha-2C adrenergic receptor (Rattus norvegicus, UniProt P22086).
T1 sequence (P22086 whole entry): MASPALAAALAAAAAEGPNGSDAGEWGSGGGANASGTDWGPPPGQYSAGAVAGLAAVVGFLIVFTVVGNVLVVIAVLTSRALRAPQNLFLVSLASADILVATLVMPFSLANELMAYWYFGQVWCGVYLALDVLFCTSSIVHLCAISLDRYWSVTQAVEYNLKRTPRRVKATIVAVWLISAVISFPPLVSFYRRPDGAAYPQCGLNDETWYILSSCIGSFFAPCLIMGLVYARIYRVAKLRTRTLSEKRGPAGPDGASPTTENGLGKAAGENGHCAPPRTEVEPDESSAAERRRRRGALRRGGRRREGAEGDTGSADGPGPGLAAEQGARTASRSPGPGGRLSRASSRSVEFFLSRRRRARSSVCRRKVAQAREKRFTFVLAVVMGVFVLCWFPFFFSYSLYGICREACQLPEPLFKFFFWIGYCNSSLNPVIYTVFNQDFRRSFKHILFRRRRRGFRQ

The target of test [2] is T2, Muscarinic acetylcholine receptor M2 (Rattus norvegicus, UniProt P10980).
T2 sequence (P10980 whole entry): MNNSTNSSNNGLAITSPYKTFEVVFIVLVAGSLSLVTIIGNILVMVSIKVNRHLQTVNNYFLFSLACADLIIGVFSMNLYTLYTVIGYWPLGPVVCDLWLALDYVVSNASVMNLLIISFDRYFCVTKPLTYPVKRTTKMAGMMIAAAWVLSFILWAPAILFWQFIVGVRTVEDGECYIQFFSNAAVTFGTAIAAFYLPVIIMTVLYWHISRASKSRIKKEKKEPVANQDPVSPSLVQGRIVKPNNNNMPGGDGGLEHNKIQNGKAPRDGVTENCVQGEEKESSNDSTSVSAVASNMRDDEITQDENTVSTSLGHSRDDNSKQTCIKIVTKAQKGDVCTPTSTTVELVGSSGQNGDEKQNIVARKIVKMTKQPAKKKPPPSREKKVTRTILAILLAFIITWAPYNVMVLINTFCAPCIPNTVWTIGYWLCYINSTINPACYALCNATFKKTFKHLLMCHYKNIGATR

A further test has as its target Histamine H1 receptor (Rattus norvegicus, UniProt P31390).

Histamine H1 receptor, sequence (P31390 whole entry): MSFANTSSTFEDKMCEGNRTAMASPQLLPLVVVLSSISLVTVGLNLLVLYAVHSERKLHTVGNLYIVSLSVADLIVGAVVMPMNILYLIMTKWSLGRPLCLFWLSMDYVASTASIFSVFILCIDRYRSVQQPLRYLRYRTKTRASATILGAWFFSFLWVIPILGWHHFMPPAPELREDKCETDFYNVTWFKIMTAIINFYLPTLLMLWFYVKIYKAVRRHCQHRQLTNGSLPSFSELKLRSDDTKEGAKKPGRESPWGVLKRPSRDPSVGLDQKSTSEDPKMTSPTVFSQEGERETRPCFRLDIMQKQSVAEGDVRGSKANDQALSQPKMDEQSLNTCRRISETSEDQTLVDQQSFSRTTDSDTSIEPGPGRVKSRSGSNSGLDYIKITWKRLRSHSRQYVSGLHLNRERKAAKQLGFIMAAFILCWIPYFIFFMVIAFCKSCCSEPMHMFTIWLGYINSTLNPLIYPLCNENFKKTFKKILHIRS

As usually defined, the Ki is a measure of affinity in units of concentration, obtained from inhibition or displacement. Low values mean higher affinity, high ones lower affinity. With `CNCCCN1c2ccccc2CCc2ccccc21` [Desmethylimipramine], the Ki was over 10 µM in test [1] and 0.05 µM in test [2].

Take `COc1ccc(C(CN(C)C)C2(O)CCCCC2)cc1` (stereo not given) [NSC_62923]: the inhibition constant (Ki) (in test [1]; in test [2]; at Histamine H1 receptor) was over 10 µM in each case.

(Values after BindingDB's records for doi:10.1016/0006-2952(86)90769-0 (Wyeth Laboratories, 1986).)
